Reference: ChEMBL document CHEMBL1129295, “Studies of cardiotonic agents. 8. Synthesis and biological activities of optically active 6-(4-(benzylamino)-7-quinazolinyl)-4,5-dihydro-5-methyl-3(2H)- pyridazinone (KF15232)” (J Med Chem, 1996)

target: Phosphodiesterase 3B (Bos taurus, UniProt E1BN64); test: Inhibition of bovine arterial Phosphodiesterase 3
Sequence (E1BN64 whole entry): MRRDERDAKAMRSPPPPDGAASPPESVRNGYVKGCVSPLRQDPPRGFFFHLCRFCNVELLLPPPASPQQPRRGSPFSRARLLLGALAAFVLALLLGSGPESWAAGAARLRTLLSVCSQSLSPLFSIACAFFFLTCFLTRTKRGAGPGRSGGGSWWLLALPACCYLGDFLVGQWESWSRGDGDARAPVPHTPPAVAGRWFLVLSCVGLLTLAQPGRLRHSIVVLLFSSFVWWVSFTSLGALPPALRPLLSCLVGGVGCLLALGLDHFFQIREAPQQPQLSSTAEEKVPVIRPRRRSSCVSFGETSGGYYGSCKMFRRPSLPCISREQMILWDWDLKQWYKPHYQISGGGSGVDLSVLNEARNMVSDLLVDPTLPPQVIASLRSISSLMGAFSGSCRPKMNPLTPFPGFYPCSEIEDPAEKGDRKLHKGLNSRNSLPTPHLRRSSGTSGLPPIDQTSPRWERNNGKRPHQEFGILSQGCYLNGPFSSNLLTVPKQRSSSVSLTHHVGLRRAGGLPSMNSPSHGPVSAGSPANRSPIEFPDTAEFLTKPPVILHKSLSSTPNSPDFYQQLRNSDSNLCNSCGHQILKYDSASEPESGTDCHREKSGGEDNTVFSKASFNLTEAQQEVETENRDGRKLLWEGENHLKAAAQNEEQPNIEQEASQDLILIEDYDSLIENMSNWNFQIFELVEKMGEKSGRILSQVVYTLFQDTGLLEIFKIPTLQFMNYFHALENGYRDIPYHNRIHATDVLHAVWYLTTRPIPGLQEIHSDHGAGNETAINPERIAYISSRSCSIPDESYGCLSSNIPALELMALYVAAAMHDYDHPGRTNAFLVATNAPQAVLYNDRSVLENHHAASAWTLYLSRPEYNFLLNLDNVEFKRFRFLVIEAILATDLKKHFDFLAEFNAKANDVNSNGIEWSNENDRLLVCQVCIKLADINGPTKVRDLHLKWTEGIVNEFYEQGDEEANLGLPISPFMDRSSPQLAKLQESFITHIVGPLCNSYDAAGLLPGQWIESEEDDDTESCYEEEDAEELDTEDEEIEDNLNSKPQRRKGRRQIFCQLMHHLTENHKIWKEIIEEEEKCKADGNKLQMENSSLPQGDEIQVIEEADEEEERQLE

Row | SMILES | IC50 [nM]
1 | Nc1nc2c(ncn2[C@@H]2O[C@@H]3COP(=O)(O)O[C@H]3[C@H]2O)c(=O)[nH]1 | 100
2 | Cc1[nH]c(=O)c(C#N)cc1-c1ccncc1 [MILRINONE] | 1000

target: not listed separately; test: Inhibition of bovine arterial Phosphodiesterase 4; parameters: species or system Bos taurus

Row | SMILES | IC50 [nM]
3 | CC1CC(=O)NN=C1c1ccc2c(NCc3ccccc3)ncnc2c1 (racemic) | > 10000
4 | Cc1[nH]c(=O)c(C#N)cc1-c1ccncc1 [MILRINONE] | 10000
5 | COc1ccc(C2CNC(=O)C2)cc1OC1CCCC1 (configuration not stated) [ROLIPRAM] | 100
6 | C[C@@H]1CC(=O)NN=C1c1ccc2c(NCc3ccccc3)ncnc2c1 | > 10000
7 | C[C@H]1CC(=O)NN=C1c1ccc2c(NCc3ccccc3)ncnc2c1 | > 10000
